From US12606833B2, “Modified mini-nucleosome core proteins and use in nucleic acid delivery” (priority 2020, dated 2026)
Where no end group is shown, it is not given here. [ ]: non-standard residue; d: D form. LINKER = not defined here

Key:
[1] = test system: lung epithelium; test: GFP expression after intranasal delivery (lung sections with CFTR staining, whole lung imaging, trachea); type: in vivo, Balb/c mice; details: 5-week post injection, FIGS. 15 and 16
Description: In the present Example, Balb/c mice were anesthetized by IP injection with Ketamine/Xylazine (90-100 mg/kg+10 mg/kg) and the anesthetized mice were positioned underneath a microscope for visual of the nasal area for intranasal delivery. 1 μl of loaded mini-nucleosome (SEQ ID NO: 390+GFP plasmid) solution was delivered into the nasal cavity every few seconds until 12 microliters were delivered to each nasal side. Total dose of 25 micrograms was delivered. Following sacrifice, mice lung was processed to obtain 10 micron thick sections. Sections were washed in PBS and incubated in blocking buffer (0.1% TritonX-100, 1% BSA, 3% donkey serum) for 1 hr and then incubated in CFTR antibody (prepared on blocking buffer) blocking buffer overnight at 4 degree Celsius. Next day wash in PBS 3×5 min and incubated in AlexaFlour-555 (Donkey Anti-rabbit IgG secondary) in blocking buffer at RT for 1 hour and washed in PBS 3×5 min. Mounting media was added and coverslip was applied and sealed. Native fluorescence of GFP was obtained in the 486 nm channel of Leica SP5 scope in the 486-nm wavelength and CFTR expression in the 555-nm channel.
In the present Example, whole lung tissue and biodistribution via mini-nucleosome was also evaluated (FIG. 15). […] Whole tissues were placed in the Odyssey imager for detecting GFP native fluorescence.

[2] = Transmission Electron Microscopy (TEM) of loaded mini-nucleosomes; type: physicochemical; details: luciferase plasmid (SEQ ID NO: 396) condensed with core protein, formulated in water
Description: To form loaded mini-nucleosomes represented in FIG. 7, core proteins were synthesized by solid phase synthesis using trifluoroacetate buffers. 200 micrograms of DNA (SEQ ID NO: 396) were added to 1 milligram of lyophilized core proteins and vortexed together, and purified to produce loaded mini-nucleosomes (FIG. 7). Buffer exchange was performed and final formulation of mini-nucleosome was made in sterile, endotoxin free water. 1 microgram of each kind of mini-nucleosomes was diluted in water and then placed on grids that were stained with freshly prepared in 0.75% uranyl acetate in methanol solution for two minutes. Grids were dipped in 100% ethanol and then blotted into lens absorbent paper. The grids were then air-dried for few minutes with film side up and taken for imaging with Hammatsu ORCA HR camera (FIG. 7).

[3] = test system: RPE cells; test: GFP expression in rat retinal tissue after intraocular delivery; type: in vivo; details: rat eyes, FIG. 11
Source text: To selectively transduce photoreceptors, the present Example utilized core proteins like those of SEQ ID NO:394. […] This neuronal attachment domain has not been previously applied for non-viral vectors to target neurons. The present disclosure provides that this neuronal targeted vector can transduce neurons in the brain via local or systemic administration. The present disclosure further provides for targeting photoreceptor binding and internalization by incorporating lectin binding domains (described in Table 4) in mini-nucleosomes for attachment to photoreceptor extracellular matrix to enhance uptake. […] Moreover, more than one domain could be utilized to selectively transduce a plurality of diverse cell types. This core protein (SEQ ID NO: 390) with integrin binding properties may also be utilized for delivery of nucleic acids to other cell types that express high levels of aVB5 integrin. The present disclosure further provides use of other intra-ocular injection techniques such as subretinal, suprachoroidal, intra-cameral, or topical administration to target photoreceptors, RPE, Mueller cells or other cell types in the retina.

[4] = test system: retina and RPE cells; test: GFP expression in retina and RPE after intravitreal injection in mice; type: in vivo, Balb/c mice; details: 1.5 micrograms, GFP plasmid, FIGS. 10 and 12
Description: In the present Example, Balb/c mice were anesthetized by IP injection with Ketamine/Xylazine (90-100 mg/kg+10 mg/kg) and positioned underneath a microscope. Mice eyes were dilated with topical Tropicamide (1%) and 1 μl of loaded mini-nucleosomes (total dose 1.5 micrograms in mice) were injected into the vitreous cavity using 32 gauge blunt needle passing through the incision made by a 25-gauge needle below the limbus. At various time points, mice were perfused with 10 ml of 1xPBS, and then sacrificed using standard techniques. Mice were enucleated and eyecups were collected and incubated in 4% paraformaldehyde overnight. The eyecups were washed with 1xPBS, then immersed in 15% sucrose for few hours and then in 30% sucrose solution overnight for cryopreservation. The eyecups were then placed in a plastic vial and frozen using OCT compound for cryo-sectioning. 10-micron thick tissue sections were obtained for staining. The retinal sections were mounted with mounting media with or without DAPI, coverslip and sealed. Images were acquired by Leica SP5. For wholemount imaging, eyecups were fixed in 4% paraformaldehyde overnight. Eyecups were washed in 1xPBS, retina was removed and the remaining eyecup or RPE wholemount was processed for staining. The RPE tissue was wholemounted with mounting media, coverslip and sealed. Images were acquired by Leica SP5.

[5] = test system: skeletal muscle cells; test: GFP expression in leg muscle after intramuscular injection (dystrophin immunolabeling); type: in vivo, Balb/c mice; details: 17.5 μg per leg, 3-month time point, FIG. 18
Description: Balb/c mice were anesthetized by IP injection with Ketamine/Xylazine (90-100 mg/kg+10 mg/kg) and several loaded mini-nucleosomes were injected into both leg muscle at 17.5 μg doses per leg using an insulin syringe (Total dose 35 micrograms per mice). Mice were sacrificed at various time points and leg muscle were obtained for tissue sections. […] One skilled in the art may contemplate combining such domains with other domains known for muscle tropism.
To validate muscle specificity of expression of genes encoded by the nucleic acid cargo, we utilized dystrophin immunolabeling as an endogenous secondary marker. […] Native fluorescence of GFP was obtained in the 486-nm channel of Leica SP5 scope. Dystrophin in red is the RFP channel (555-nm). Untransduced muscle cells in figure also serve as internal control for differentiation between GFP signal and autofluorescence.

KKKRK-[LINKER]-NGR-[LINKER]-KRKRKKRHRKKKKRRRRKRHRK-[LINKER]-NGR-[LINKER]-KKK (KKKRK[LINKER]NGR[LINKER]KRKRKKRHRKKKKRRRRKRHRK[LINKER]NGR[LINKER]KKK; not fully specified; numbers in words are those of the source; reading uncertain; also: linkers of unspecified length between segments (after 5, 8, 30, 33)) [SEQ ID NO: 390]
GFP native fluorescence in whole lung tissue / sustained expression [1]: high levels of sustained expression
Shape of loaded mini-nucleosome (TEM) [2]: rod/lobular shaped
GFP expression in rat retinal tissue [3]: transduce RPE cells in rat eyes exclusively

KKKRK-[LINKER]-KTKKK-[LINKER]-AK-[LINKER]-KALKKK-[LINKER]-KKGKKKKRRRRKAAPKK (KKKRK[LINKER]KTKKK[LINKER]AK[LINKER]KALKKK[LINKER]KKGKKKKRRRRKAAPKK; not fully specified; numbers in words are those of the source; reading uncertain; also: linkers of unspecified length between segments (after 5, 10, 12, 18)) [SEQ ID NO: 392]
GFP expression / uptake in mouse retina and RPE [4]: enhanced uptake into the RPE

KKKRHRKKKKK-[LINKER]-RGD-[LINKER]-KKKK-[LINKER]-NTQIH-[LINKER]-RRRRR-[LINKER]-TPH-[LINKER]-KK (KKKRHRKKKKK[LINKER]RGD[LINKER]KKKK[LINKER]NTQIH[LINKER]RRRRR[LINKER]TPH[LINKER]KK; not fully specified; numbers in words are those of the source; reading uncertain; also: linkers of unspecified length between segments (after 11, 14, 18, 23, 28, 31)) [SEQ ID NO: 391]
GFP fluorescence in muscle tissue sections [5]: sharp green fluorescence in skeletal muscle cells
Shape of loaded mini-nucleosome (TEM) [2]: mixture of circular and rod like molecules

KKKRHRKRKRKRKRRRRKKK-[LINKER]-ASSLNIAK-[LINKER]-RRRR (KKKRHRKRKRKRKRRRRKKK[LINKER]ASSLNIAK[LINKER]RRRR; not fully specified; numbers in words are those of the source; reading uncertain; also: linkers of unspecified length between segments (after 20 and 28)) [SEQ ID NO: 389]
GFP fluorescence in muscle tissue sections [5]: didn't exhibit GFP fluorescence

KKRHRK-[LINKER]-LRE-[LINKER]KRHRKLRRRRRLKRHRKKRHRK-[LINKER]-LRE-[LINKER]-K (KKRHRK[LINKER]LRE[LINKER]KRHRKLRRRRRLKRHRKKRHRK[LINKER]LRE[LINKER]K; not fully specified; numbers in words are those of the source; reading uncertain; also: linkers of unspecified length between segments (after 6, 9, 31, 34)) [SEQ ID NO: 394]
GFP expression / uptake in mouse retina and RPE [4]: transduction into ganglion cells, bipolar cells and photoreceptors
